# Earlier results in publication PMC7961821, “Comparing Ligninolytic Capabilities of Bacterial and Fungal Dye-Decolorizing Peroxidases and Class-II Peroxidase-Catalases” (International Journal of Molecular Sciences, 2021).
# Columns and labels:
# PerVPL = target: T1, PerVPL (Pleurotus eryngii, UniProt O94753); test: steady-state kinetics, absorbance loss at […] nm; format: biochemical; details: read-out: RB19; 1 mM H2O2, optimal pH (not given for RB19), 25 °C
# T1 construct: gene vpl2; heme enzyme
# PchLiPA = target: T2, PchLiPA (Phanerodontia chrysosporium, UniProt P06181); test: steady-state kinetics, absorbance loss at […] nm; format: biochemical; details: read-out: RB19; 1 mM H2O2, optimal pH (not given for RB19), 25 °C
# T2 construct: gene LPOA; heme enzyme
# T2 sequence (P06181 29-372): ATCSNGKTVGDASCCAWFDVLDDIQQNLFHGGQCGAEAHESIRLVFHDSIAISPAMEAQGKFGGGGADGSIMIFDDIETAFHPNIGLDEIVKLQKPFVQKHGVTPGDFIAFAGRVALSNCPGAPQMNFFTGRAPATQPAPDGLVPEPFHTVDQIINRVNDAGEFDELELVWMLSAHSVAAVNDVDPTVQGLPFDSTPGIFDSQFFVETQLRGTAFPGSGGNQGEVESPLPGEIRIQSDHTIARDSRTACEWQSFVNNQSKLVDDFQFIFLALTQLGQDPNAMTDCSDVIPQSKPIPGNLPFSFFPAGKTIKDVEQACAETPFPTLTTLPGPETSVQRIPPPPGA
# T1 sequence (O94753 31-361): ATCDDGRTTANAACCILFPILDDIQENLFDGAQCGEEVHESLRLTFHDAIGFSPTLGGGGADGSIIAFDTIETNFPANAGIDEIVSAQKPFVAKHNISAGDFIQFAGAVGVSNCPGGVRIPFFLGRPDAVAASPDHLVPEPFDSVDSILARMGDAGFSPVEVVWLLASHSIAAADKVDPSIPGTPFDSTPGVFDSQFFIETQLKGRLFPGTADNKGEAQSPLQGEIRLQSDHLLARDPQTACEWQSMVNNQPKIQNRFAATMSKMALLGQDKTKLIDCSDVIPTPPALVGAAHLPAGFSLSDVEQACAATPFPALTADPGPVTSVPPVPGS
smiles,measurement,setting,value
Nc1c(S(=O)(=O)O)cc(Nc2cccc(S(=O)(=O)CCOS(=O)(=O)O)c2)c2c1C(=O)c1ccccc1C2=O [RB19],Km,PerVPL,33 ± 8 µM
same,Km,PchLiPA,34 ± 13 µM
